We go through 14 molecules from patent publication US8236279B2, “Bisaminoethanethiol-targeting ligand conjugates and compositions” (priority 1999, dated 2012).

“Also recorded” adds a separate entry of the source.

The conditions of series [1]: list continues over wrapped lines of the table; cited from earlier work.
Series [2] can be described thus: Effect of loading on blood glucose level in normal rats. The class given is in vivo, Fischer 344 rats. The settings on record: insulin (5 units) after 30 minutes. How it is done:
The blood glucose level (mg/dl) was determined by a glucose meter (Glucometer DEX, Bayer Corporation, Elkhart, Ind.). Prior to the study, the baseline of blood glucose level was obtained. […] In a separate experiment, a group of rats was administered EC-deoxyglucose and FDG. Insulin (5 units) was administered after 30 minutes.

For a further series, the system named is hexokinase. Description: Hexokinase assay (glucose phosphorylation). The settings on record: UV wavelength 340 nm. The class given is biochemical. The method, then:
To determine if EC-DG mimics glucose phosphorylation, a hexokinase assay was conducted. Using a ready made kit (Sigma Chemical Company), EC-DG, glucosamine and glucose (standard) were assayed at UV wavelength 340 nm.

Series [3] has as its system Breast Tumor-Bearing Rats (13762 tumor cell line). Description: Tissue distribution (biodistribution) studies in breast tumor-bearing rats. Conditions: for tumor/blood and tumor/muscle count density ratios, course over time: […] (so in the source); for Biodistribution: Brain / Biodistribution: Heart / Biodistribution: Spleen / Tumor/Blood ratio / Tumor/Liver ratio / Tumor/Muscle ratio: Table 9. The method, then:
Studies performed 14 to 17 days after implantation when tumors reached approximately 1 cm diameter. Animals were anesthetized with ketamine (10-15 mg/rat, intraperitoneally) before each procedure.
The injected mass of each ligand was 10 μg per rat. At 20 min, 1, 2 and 4 h following administration of the radiopharmaceuticals, the anesthetized animals were sacrificed and the tumor and selected tissues were excised, weighed and counted for radioactivity by a gamma counter (Packard Instruments, Downers Grove, Ill.). The biodistribution of tracer in each sample was calculated as percentage of the injected dose per gram of tissue wet weight (% ID/g). Counts from a diluted sample of the original injectate were used for reference. Tumor/nontarget tissue count density ratios were calculated from the corresponding % ID/g values. Student-t test was used to assess the significance of differences between two groups.
Studies performed 14 to 17 days after implantation when tumors reached approximately 1 cm diameter. Rats were anesthetized with ketamine (10-15 mg/rat, intraperitoneally) before each procedure.
In tissue distribution studies, each animal was injected intravenously with 370-550 KBq of ^99mTc-EC-MN or ^99mTc-EC (n=3/time point). The injected mass of ^99mTc-EC-MN was 10 μg per rat. At 0.5, 2 and 4 hrs following administration of the radiotracers, the rats were sacrificed and the selected tissues were excised, weighed and counted for radioactivity. The biodistribution of tracer in each sample was calculated as percentage of the injected dose per gram of tissue wet weight (% ID/g). Tumor/nontarget tissue count density radios were calculated from the corresponding % ID/g values. […] Student t-test was used to assess the significance of differences between groups.
At 0.5, 2 and 4 hrs following administration of the radiotracers, the rats were sacrificed and the selected tissues were excised, weighed and counted for radioactivity. The biodistribution of tracer in each sample was calculated as percentage of the injected dose per gram of tissue wet weight (% ID/g). Tumor/nontarget tissue count density ratios were calculated from the corresponding % ID/g values. Student t-test was used to assess the significance of differences between groups.
(§1) At 0.5, 2 and 4 hours following administration of the radiotracers, the rats were sacrificed and the selected tissues were excised, weighed and counted for radioactivity. The biodistribution of tracer in each sample was calculated as percentage of the injected dose per gram of tissue wet weight (% ID/g). Tumor/nontarget tissue count density ratios were calculated from the corresponding % ID/g values.
Studies were performed 14 to 17 days after implantation when tumors reached approximately 1 cm diameter. Rats were anesthetized with ketamine (10-15 mg/rat, intraperitoneally) before each procedure.
as §1, with “In tissue distribution studies, each animal was injected intravenously with 10-20 μCi (per rat) or 1-2 μCi (per mouse) of ^99mTc-EC or ^99mTc-EC-DG (n=3/time point). The injected mass of ^99mTc-EC-DG was 1 mg per rat. At” for “At”, “rodents” for “rats”

Series [4] deals with breast (13762) and lung (A549) cancer cells. The series can be described thus: Effect of d- and l-glucose on cellular uptake. The class given is cell-based. Conditions: 1-2.0 mg/well, 2 hours incubation. How it is done: To evaluate if the uptake of ^99mTc-EC-deoxyglucose is mediated via d-glucose mechanism, d- and l-glucose (1 mg and 2.0 mg) were added to, each well containing either breast or lung cancer cells (50,000/0.5 ml/well), along with 2 μCi of ^99mTc-EC-deoxyglucose and ^18F-FDG. After 2 hours incubation, the cells were washed with phosphate buffered saline 3 times and followed by trypsin to lose the cells. The cells were counted by a gamma counter.

Series [5] has as its system two lung cancer cell lines and one breast cell line (A549, H1299, 13762). The series can be described thus: Effect of glucose on cellular uptake. The class given is cell-based. How it is done: Neomycin is known to influence glucose absorption (Rogers et al., 1968; Fanciulli et al., 1994). […] After incubation, the cells were washed with phosphate buffered saline 3 times and followed by trypsin to lose the cells. The cells were then counted by a gamma counter.

Series [6] has as its system breast tumor-bearing rats. Description: Scintigraphic (gamma camera) imaging studies in tumor-bearing rats. The class given is in vivo. Conditions: different time points (0.5-4 hrs) after i.v. injection.
In series [7] the test system is patients (3 brain tumors and 2 lung diseases). Description: Preliminary clinical imaging studies in patients (brain tumors, lung diseases). The class given is in vivo, human. The settings on record: images 1-2 hours post-administration. How it is done:
Scintigraphic images, using a gamma camera equipped with low-energy, parallel-hole collimator, were obtained 0.5, 2 and 4 hours after i.v. injection of 100 μCi of the radiotracer. The animal model used was breast tumor-bearing rats. […] Preliminary clinical studies were conducted in 5 patients (3 brain tumors and 2 lung diseases).

Series [8] concerns A549 lung cancer cell line. The series can be described thus: In vitro cellular uptake assay. Conditions: 2 μCi per well, 80,000 cells, incubation 0.5-4 hours. The class given is cell-based, human. How it is done:
After incubation at 0.5-4 hours, the cells were washed with phosphate buffered saline 3 times and followed by trypsin to lose the cells.
In vitro cellular uptake assay was conducted by using a human lung cancer cell line (A549). Two μCi of ^99mTc-EC-DG and ^18F-FDG were added to wells containing 80,000 cells each. After incubation at 0.5-4 hours, the cells were washed with phosphate buffered saline 3 times and followed by trypsin to lose the cells. The cells were then counted by a gamma counter.

A short description of the next series: Water solubility. The class given is physicochemical.

Regarding `CCC1(c2ccc(N)cc2)CCC(=O)NC1=O` (centres unmarked) [Aminogiutethimide], in series [1], the “Acute Toxicity” value was “Drowsiness; nausea; dizziness; rash” and the Delayed toxicity entry is “Hypothryroidism (rare); bone”.
Turning to `COc1cc(NS(C)(=O)=O)ccc1Nc1c2ccccc2nc2ccccc12` [Amsacrine], the Delayed toxicity entry in series [1] is reported as “Bone marrow depression;”.
On to `OC[C@H]1OC(O)[C@H](F)[C@@H](O)[C@@H]1O` (some centres unmarked) [FDG], for which the “increased blood glucose level on co-administration with insulin” value in [2] was “suppressed”.
As to `OC[C@H]1OC(O)[C@H](O)[C@@H](O)[C@@H]1O` (some centres unmarked) [Glucose], the hexokinase assay entry in the series on hexokinase was “positive”.
Consider `O=[N+]([O-])c1nccn1CC(O)C[18F]` (centres unmarked) [[^18F]FMISO], for which, in [3] (30 min, 2 and 4 hrs post-injection), the “tumor-to-blood uptake ratio, comparison among [18F]FMISO, [131I]IMISO and 99mTc-EC-MN” value is reported as “highest”. Besides, the “tumor/blood and tumor/muscle count density ratios, course over time” value in series [3] is “gradually increased”.
In the case of `O=[N+]([O-])c1nccn1CC(O)C[131I]` (centres unmarked) [[^131I]IMISO], in [3] (2 and 4 hrs postinjection, (p<0.05) as printed), the “Tumor/blood and tumor/muscle ratios, 99mTc-EC-MN versus [131I]IMISO” value is “not significantly different”. The “tumor/blood and tumor/muscle count density ratios, course over time” value in series [3] is given as “gradually increased”.
Turning to `OC[C@H]1OC(O)[C@H]([18F])[C@@H](O)[C@@H]1O` (some centres unmarked) [^18F-FDG], in series [4], the “effect of d-glucose on cellular uptake” value is reported as “decreased uptake” and the “effect of l-glucose on cellular uptake” value is on record as “no influence”.
For the molecule `[O]=[99Tc](=[O])(=[O])[O-]` [^99mTc Pertechnetate], in series [3] (2 Hour), the “Biodistribution: Brain” value is 0.022 ± 0.002 % ID/g, the “Biodistribution: Heart” value stood at 0.145 ± 0.015 % ID/g, the “Biodistribution: Spleen” value is 0.187 ± 0.014 % ID/g and the Tumor/Blood ratio came out at 0.497 ± 0.073. In addition, in [3] (2 Hour), the Tumor/Liver ratio is listed as 1.084 ± 0.115 and the Tumor/Muscle ratio was 4.302 ± 0.093. Further, in [3] (4 Hour), the “Biodistribution: Brain” value came out at 0.031 ± 0.009 % ID/g, the “Biodistribution: Heart” value is recorded as 0.166 ± 0.012 % ID/g, the “Biodistribution: Spleen” value is on record as 0.225 ± 0.017 % ID/g and the Tumor/Blood ratio was 0.597 ± 0.144. Moreover, in series [3] (4 Hour), the Tumor/Liver ratio was determined as 0.865 ± 0.270 and the Tumor/Muscle ratio is recorded as 6.689 ± 1.458. In series [3] (30 Min.), the “Biodistribution: Brain” value was determined as 0.038 ± 0.014 % ID/g, the “Biodistribution: Heart” value worked out at 0.275 ± 0.089 % ID/g, the “Biodistribution: Spleen” value was found to be 0.331 ± 0.108 % ID/g and the Tumor/Blood ratio is 0.472 ± 0.093. For the same molecule, in [3] (30 Min.), the Tumor/Liver ratio is 1.084 ± 0.023 and the Tumor/Muscle ratio is reported as 4.788 ± 0.833.
With `O=C(O)[C@@H]1C[S][99Tc]23(=[O])[S]C[C@@H](C(=O)O)[N]2CC[N]13` [^99mTc-EC, ^99mTc-L,L-ethylenedicysteine], the “cellular uptake of control” value in [5] was “no uptake”. Further, the “Scintigraphic images: visualization of tumor / tumor uptake” value in series [6] is “no apparent tumor uptake; also recorded: less tumor uptake”. The “tumor/blood count density ratios, course over time” value in series [3] (20 min-4 h) was “decreased”. Besides, the “tumor/blood and tumor/muscle count density ratios, course over time” value in series [3] is “did not alter”. Moreover, the “tumor-to-blood and tumor-to-muscle values, course over time” value in series [3] (same time period (0.5-4 hours)) was “time-dependent decrease”.
In the case of `O=C(N[C@H]1C(O)O[C@H](CO)[C@@H](O)[C@@H]1O)[C@@H]1C[S][Tc]23(=[O])[S]C[C@@H](C(=O)N[C@H]4C(O)O[C@H](CO)[C@@H](O)[C@@H]4O)[N]2CC[N]13` (some centres unmarked) [^99mTc-EC-DG], in series [7], the “differentiation of benign versus malignant tumors” value is “able to differentiate benign versus malignant tumors”, the “uptake in benign meningioma” value is given as “no focal intensed uptake; also recorded: poor uptake”, the “uptake in lung tumor” value is listed as “focal intensed uptake; also recorded: high uptake” and the “uptake in malignant astrocytoma” value is “high uptake”. Also, the “uptake in patient with TB” value in series [7] is “no focal intensed uptake; also recorded: Poor uptake”. In [8], the cellular uptake result is on record as “comparable to FDG”. Further, in series [4], the “effect of d-glucose on cellular uptake” value is “decreased uptake” and the “effect of l-glucose on cellular uptake” value is recorded as “no influence”. Besides, the “Scintigraphic images: visualization of tumor / tumor uptake” value in [6] was “visualized well”. The “Scintigraphic images: visualization of tumor / tumor uptake” value in series [6] (listed as 99mTc-EC-deoxyglucose) is given as “well visualized”. In [3] (0.5-4 hours), the “tumor-to tissue ratios, course over time, compared to 99mTc-EC and free technetium” value was “increased as a function of time”.
For the molecule `N[C@H]1C(O)O[C@H](CO)[C@@H](O)[C@@H]1O` (some centres unmarked) [glucosamine], the hexokinase assay result in the series with hexokinase is “positive”.
For Aldesleukin, in series [1], the “Acute Toxicity” value is given as “Fever; fluid retention; hypertension;” and the Delayed toxicity result is “Neuropsychiatric disorders;”.
For L,L-ethylenedicysteine [EC], the water solubility result in the series “Water solubility” is “water soluble”.

B1: Asparaginase: anticancer drug listed in Table 2 (protein, UniProt P00805 23-348, looked up)
L-asparaginase 2: LPNITILATGGTIAGGGDSATKSNYTVGKVGVENLVNAVPQLKDIANVKGEQVVNIGSQDMNDNVWLTLAKKINTDCDKTDGFVITHGTDTMEETAYFLDLTVKCDKPVVMVGAMRPSTSMSADGPFNLYNAVVTAADKASANRGVLVVMNDTVLDGRDVTKTNTTDVATFKSVNYGPLGYIHNGKIDYQRTPARKHTSDTPFDVSKLNELPKVGIVYNYANASDLPAKALVDAGYDGIVSAGVGNGNLYKSVFDTLATAAKTGTAVVRSSRVPTGATTQDAEVDDAKYGFVASGTLNPQKARVLLQLALTQTKDPQQIQQIFNQY
On to B1, for which the “Acute Toxicity” value in series [1] was “Nausea and vomiting; fever; chills;”.
